Data as given in patent US20040029965A1, “Formulations for reducing or eliminating toxicity of enviromental hormones containing ursodeoxycholic acid” (priority 2000, published 2004).

Tests used:
C57B1/6J mice [1] = assay: Effect of UDCA on death (death rate, death time) of mice by a single subcutaneous injection of TCDD; assay type: in vivo
Description: (§1) Male C57B1/6J mice of 5 weeks old having the average weight of 18-22 g which had been bred in CRJ (Charles River in Japan) were purchased and used in this example as experimental animals. Those mice were acclimated under the constant breeding condition, i.e. the temperature of 24±1° C., the humidity of 60±10% and the light and darkness cycle of 12 hours, for one week and thereafter, utilized in the experiment.
(§2) The Experimental animals were supplied with Purina powdered feed (purchased from Hae Eun Trade) and supplied with water ad libitum. All the animals were weighed twice a week during experimentation.
(§3) 2,3,7,8-tetrachlorodibenzo-p-dioxin (TCDD) dissolved in toluene (purity of 95% or more as a result of gas chromatography analysis), manufactured by Chem. Services Inc. in USA, was volatilized with nitrogen to obtain powder. The obtained powder was dissolved in a mixed solvent containing acetone and corn oil with a volume ratio of 1:6. The resulting solution each containing 110, 27.5 and 6.9 μg/kg of TCDD was subcutaneously injected to mice at a volume of 5 ml per body weight. […] The mice were supplied with the feed from 10 days before (pre-administration) to 60 days after administration of TCDD (post-administration).
(§4) The results are expressed as Mean±Standard Deviation values. For statistical analysis of the body weight, feed and water uptake, biochemical findings, hematological findings and the weight of organ in an acute toxicity test, verification was performed by one way analysis of variance (ANOVA) in case of equal distribution. In case significance was recognized in ANOVA, the Student's t-test was performed in the levels of p<0.05 and p<0.01.

C57B1/6J mice [2] = assay: Changes in body weight of mice after a single subcutaneous injection of TCDD; assay type: in vivo; settings: for Weight (body weight): at sacrifice
Description: as §1, §2, §3, §4

[3] = TCDD 6.9 μg/kg + UDCA 0.125 wt %
[4] = TCDD 6.9 μg/kg + UDCA 0.25 wt %
[5] = TCDD 27.5 μg/kg + UDCA 0.125 wt %
[6] = TCDD 27.5 μg/kg + UDCA 0.25 wt %
[7] = TCDD 27.5 μg/kg + UDCA 0.5 wt %
[8] = TCDD 110.0 μg/kg + UDCA 0.125 wt %
[9] = TCDD 110.0 μg/kg + UDCA 0.25 wt %
[10] = TCDD 110.0 μg/kg + UDCA 0.5 wt %

C[C@H](CCC(=O)O)[C@H]1CC[C@H]2[C@@H]3[C@@H](O)C[C@@H]4C[C@H](O)CC[C@]4(C)[C@H]3CC[C@]12C [UDCA, 3α, 7β-dihydroxy-5β-cholanoic acid] was tested, and the Death rate (C57B1/6J mice [1]; [3]) was 0%, the “No. of dead mice/No. of administered mice” value (C57B1/6J mice [1]; [3]) was 0/10 and the Death rate (C57B1/6J mice [1]; [4]) was 0%. For the same compound, the “No. of dead mice/No. of administered mice” value (C57B1/6J mice [1]; [4]) was 0/10, the Death rate (C57B1/6J mice [1]; TCDD 6.9 μg/kg + UDCA 0.5 wt %) was 0% and the “No. of dead mice/No. of administered mice” value (C57B1/6J mice [1]; TCDD 6.9 μg/kg + UDCA 0.5 wt %) was 0/10. For the same compound, the “No. of dead mice/No. of administered mice” value (C57B1/6J mice [1]; [5]) was 0/10, the “No. of dead mice/No. of administered mice” value (C57B1/6J mice [1]; [6]) was 0/10 and the “No. of dead mice/No. of administered mice” value (C57B1/6J mice [1]; [7]) was 0/10. The “Death time (Mean ± SD)” value (C57B1/6J mice [1]; [8]) was 33 ± 4 days, the “No. of dead mice/No. of administered mice” value (C57B1/6J mice [1]; [8]) was 10/10 and the Death rate (C57B1/6J mice [1]; [9]) was 90%. For the same compound, the “Death time (Mean ± SD)” value (C57B1/6J mice [1]; [9]) was 34 ± 5 days, the “No. of dead mice/No. of administered mice” value (C57B1/6J mice [1]; [9]) was 9/10 and the Death rate (C57B1/6J mice [1]; [10]) was 40%. For the same compound, the “Death time (Mean ± SD)” value (C57B1/6J mice [1]; [10]) was 51 ± 8 days, the “No. of dead mice/No. of administered mice” value (C57B1/6J mice [1]; [10]) was 4/10 and the body weight (C57B1/6J mice [2]; TCDD 6.9 μg/kg + UDCA 0.125 wt %, 0 day) was 19.77 ± 0.21. For the same compound, the body weight (C57B1/6J mice [2]; TCDD 6.9 μg/kg + UDCA 0.125 wt %, 12 days) was 21.95 ± 0.28, the body weight (C57B1/6J mice [2]; TCDD 6.9 μg/kg + UDCA 0.125 wt %, 22 days) was 23.16 ± 0.32 and the body weight (C57B1/6J mice [2]; TCDD 6.9 μg/kg + UDCA 0.125 wt %, 32 days) was 24.15 ± 0.38. It also gave a body weight (C57B1/6J mice [2]; TCDD 6.9 μg/kg + UDCA 0.125 wt %, 39 days) of 25.21 ± 0.46, a body weight (C57B1/6J mice [2]; TCDD 6.9 μg/kg + UDCA 0.125 wt %, 50 days) of 26.62 ± 0.56 and a body weight (C57B1/6J mice [2]; TCDD 6.9 μg/kg + UDCA 0.125 wt %, 59 days) of 27.06 ± 0.60. The “Weight (body weight)” value (C57B1/6J mice [2]; [3]) was 24.12 ± 1.83 g, the body weight (C57B1/6J mice [2]; TCDD 6.9 μg/kg + UDCA 0.25 wt %, 0 day) was 20.13 ± 0.34 and the body weight (C57B1/6J mice [2]; TCDD 6.9 μg/kg + UDCA 0.25 wt %, 12 days) was 22.18 ± 0.38. It also gave a body weight (C57B1/6J mice [2]; TCDD 6.9 μg/kg + UDCA 0.25 wt %, 22 days) of 23.81 ± 0.43, a body weight (C57B1/6J mice [2]; TCDD 6.9 μg/kg + UDCA 0.25 wt %, 32 days) of 24.21 ± 0.47 and a body weight (C57B1/6J mice [2]; TCDD 6.9 μg/kg + UDCA 0.25 wt %, 39 days) of 25.69 ± 0.45. For the same compound, the body weight (C57B1/6J mice [2]; TCDD 6.9 μg/kg + UDCA 0.25 wt %, 50 days) was 27.15 ± 0.46, the body weight (C57B1/6J mice [2]; TCDD 6.9 μg/kg + UDCA 0.25 wt %, 59 days) was 27.74 ± 0.48 and the “Weight (body weight)” value (C57B1/6J mice [2]; [4]) was 24.72 ± 1.39 g. For the same compound, the body weight (C57B1/6J mice [2]; TCDD 6.9 μg/kg + UDCA 0.5 wt %, 0 day) was 19.97 ± 0.28, the body weight (C57B1/6J mice [2]; TCDD 6.9 μg/kg + UDCA 0.5 wt %, 12 days) was 21.81 ± 0.32 and the body weight (C57B1/6J mice [2]; TCDD 6.9 μg/kg + UDCA 0.5 wt %, 22 days) was 23.26 ± 0.37. It also gave a body weight (C57B1/6J mice [2]; TCDD 6.9 μg/kg + UDCA 0.5 wt %, 32 days) of 24.28 ± 0.50, a body weight (C57B1/6J mice [2]; TCDD 6.9 μg/kg + UDCA 0.5 wt %, 39 days) of 25.22 ± 0.49 and a body weight (C57B1/6J mice [2]; TCDD 6.9 μg/kg + UDCA 0.5 wt %, 50 days) of 27.15 ± 0.49. The body weight (C57B1/6J mice [2]; TCDD 6.9 μg/kg + UDCA 0.5 wt %, 59 days) was 27.06 ± 0.56, the “Weight (body weight)” value (C57B1/6J mice [2]; TCDD 6.9 μg/kg + UDCA 0.5 wt %) was 24.19 ± 1.38 g and the body weight (C57B1/6J mice [2]; TCDD 27.5 μg/kg + UDCA 0.125 wt %, 0 day) was 19.80 ± 0.25. The body weight (C57B1/6J mice [2]; TCDD 27.5 μg/kg + UDCA 0.125 wt %, 12 days) was 22.04 ± 0.26, the body weight (C57B1/6J mice [2]; TCDD 27.5 μg/kg + UDCA 0.125 wt %, 22 days) was 23.59 ± 0.28 and the body weight (C57B1/6J mice [2]; TCDD 27.5 μg/kg + UDCA 0.125 wt %, 32 days) was 24.17 ± 0.33. It also gave a body weight (C57B1/6J mice [2]; TCDD 27.5 μg/kg + UDCA 0.125 wt %, 39 days) of 25.48 ± 0.36, a body weight (C57B1/6J mice [2]; TCDD 27.5 μg/kg + UDCA 0.125 wt %, 50 days) of 26.63 ± 0.28 and a body weight (C57B1/6J mice [2]; TCDD 27.5 μg/kg + UDCA 0.125 wt %, 59 days) of 26.93 ± 0.34. For the same compound, the “Weight (body weight)” value (C57B1/6J mice [2]; [5]) was 24.58 ± 1.07 g, the body weight (C57B1/6J mice [2]; TCDD 27.5 μg/kg + UDCA 0.25 wt %, 0 day) was 19.96 ± 0.30 and the body weight (C57B1/6J mice [2]; TCDD 27.5 μg/kg + UDCA 0.25 wt %, 12 days) was 22.22 ± 0.29. For the same compound, the body weight (C57B1/6J mice [2]; TCDD 27.5 μg/kg + UDCA 0.25 wt %, 22 days) was 23.56 ± 0.37, the body weight (C57B1/6J mice [2]; TCDD 27.5 μg/kg + UDCA 0.25 wt %, 32 days) was 24.34 ± 0.38 and the body weight (C57B1/6J mice [2]; TCDD 27.5 μg/kg + UDCA 0.25 wt %, 39 days) was 25.38 ± 0.37. For the same compound, the body weight (C57B1/6J mice [2]; TCDD 27.5 μg/kg + UDCA 0.25 wt %, 50 days) was 26.94 ± 0.50, the body weight (C57B1/6J mice [2]; TCDD 27.5 μg/kg + UDCA 0.25 wt %, 59 days) was 27.27 ± 0.51 and the “Weight (body weight)” value (C57B1/6J mice [2]; [6]) was 24.62 ± 1.44 g. It also gave a body weight (C57B1/6J mice [2]; TCDD 27.5 μg/kg + UDCA 0.5 wt %, 0 day) of 19.08 ± 0.20, a body weight (C57B1/6J mice [2]; TCDD 27.5 μg/kg + UDCA 0.5 wt %, 12 days) of 21.09 ± 0.32 and a body weight (C57B1/6J mice [2]; TCDD 27.5 μg/kg + UDCA 0.5 wt %, 22 days) of 22.52 ± 0.33. The body weight (C57B1/6J mice [2]; TCDD 27.5 μg/kg + UDCA 0.5 wt %, 32 days) was 23.33 ± 0.32, the body weight (C57B1/6J mice [2]; TCDD 27.5 μg/kg + UDCA 0.5 wt %, 39 days) was 24.07 ± 0.34 and the body weight (C57B1/6J mice [2]; TCDD 27.5 μg/kg + UDCA 0.5 wt %, 50 days) was 25.31 ± 0.43. The body weight (C57B1/6J mice [2]; TCDD 27.5 μg/kg + UDCA 0.5 wt %, 59 days) was 24.52 ± 0.42, the “Weight (body weight)” value (C57B1/6J mice [2]; [7]) was 22.15 ± 1.14 g and the body weight (C57B1/6J mice [2]; TCDD 110.0 μg/kg + UDCA 0.125 wt %, 0 day) was 19.48 ± 0.29. It also gave a body weight (C57B1/6J mice [2]; TCDD 110.0 μg/kg + UDCA 0.125 wt %, 12 days) of 19.40 ± 0.40.
